Reference: patent US20220160712A1, “METHODS OF TREATING RHEUMATOID ARTHRITIS AND FOR PREDICTING THE RESPONSE TO METHOTREXATE” (CHAN ZUCKERBERG BIOHUB, INC., priority 2020, published 2022)

Tests used:
human gut microbiota = test: MTX treatment of gnotobiotic mice colonized with human stool; 16S-seq and qPCR of gut microbiota; assay type: in vivo; settings: for gut microbial community structure, ANOSIM R: p=0.006; for shift in gut microbiota, ANOSIM R: Day 0 vs. 2
gut microbiome = test: RA patients on oral MTX: 16S-seq and metagenomic sequencing of stool at baseline and 1 month; clinical response; assay type: in vivo, human; settings: for number of gene families differentially abundant over time: metagenomic sequencing n=17
Procedure: Consecutive patients from the New York University Langone Medical Center's rheumatology clinics and offices were screened for the presence of RA based on ACR criteria (Aletaha et al., 2010). After informed consent was signed, each patient's medical history (according to chart review and interview/questionnaire), diet, and medications were determined. A screening musculoskeletal examination and laboratory assessments were also performed or reviewed. All RA patients who met the study criteria were offered enrollment. The criteria for inclusion in the study required that patients meet the American College of Rheumatology/European League Against Rheumatism 2010 classification criteria for RA (Aletaha et al., 2010), including seropositivity for rheumatoid factor and/or anti-citrullinated protein antibodies, and that all subjects be age 18 years or older. New-onset RA was defined as disease duration of a minimum of 6 weeks and up to 6 months since diagnosis, and absence of any treatment with disease-modifying anti-rheumatic drugs, biologic therapy or steroids (ever). The exclusion criteria applied to all groups were as follows: recent (<3 months prior) use of any antibiotic therapy, current extreme diet (e.g., parenteral nutrition or macrobiotic diet), known inflammatory bowel disease, known history of malignancy, current consumption of probiotics, any gastrointestinal tract surgery leaving permanent residua (e.g., gastrectomy, bariatric surgery, colectomy), or significant liver, renal, or peptic ulcer disease. This study was approved by the Institutional Review Board of New York University School of Medicine protocols #09-0658 and as previously published (Scher et al., 2013). All new onset rheumatoid arthritis (NORA) patients were recruited using established protocols from a previously described study (Scher et al., 2013). Patients received oral MTX at standard of care doses as prescribed by their treating rheumatologists. Stool samples were collected at baseline and 1 month after MTX initiation and metadata were obtained at baseline and 4 months after therapy initiation. Clinical and demographic data was de-identified and recorded in RedCap by the designated study personnel. Clinical responder status (MTX-R) was defined a priori as any NORA patient whose DAS28 score was greater than 2 at baseline and improved by at least 1.8 by month 4 post-treatment. DNA was extracted from human fecal samples (n=23 patients, 46 stool samples) as previously described (Scher et al., 2013), using the MoBio Powersoil DNA extraction kit, based on cell membrane disruption by high-speed shaking in the presence of beads. The V4 hypervariable region of bacterial 16S ribosomal RNA (rRNA) was performed using a MiSeq […] platform (150-bp read length, paired-end protocol) at the New York University Genome Technology Center as previously described (Manasson et al., 2018). For each sample, fastq files are available in NCBI's Sequence Read Archive (SRA), accession number PRJNA656577.
Stool samples from 17 RA patients underwent DNA extraction using ZymoBIOMICS 96 MagBead DNA Kit (Cat #D4302) as per the manufacturer's protocol. Sequencing libraries were generated using the Nextera DNA Flex Library Kit (Illumina, #20018705) and Nextera Compatible Unique Dual Indices—Set A primers (Illumina, #20027213). Library concentrations were normalized using PicoGreen (Quant-It dsDNA; Life Technologies) and pooled for sequencing on the NovaSeq using S1 or S2 platform at the Chan Zuckerberg Biohub.
Reads that were not already demultiplexed were demultiplexed using QIIME (Caporaso et al., 2010) v1.9.1 (split_libraries_fastq.py). For all reads except NYU RA patient samples, QIIME2 (Bolyen et al., 2019)(v 2020.2) was used to trim reads, denoise the data, and create a feature table using the following commands: qiime cutadapt trim-paired, qiime dada2 denoise-paired, qiime feature-table filter-samples. […]

[1] = newly diagnosed RA patients; cited from earlier work
[2] = Targeted LC-MS for MTX in RA donor stool samples used for fecal transplant; design: species or system human; settings: limit of quantification 100 nM
[3] = Donor 2, individually housed mice, MTX 50 mg/kg
[4] = combined gnotobiotic experiments, multi-factor design, padj<0.05, DESeq

Question: With `CN(Cc1cnc2nc(N)nc(N)c2n1)c1ccc(C(=O)N[C@@H](CCC(=O)O)C(=O)O)cc1` [MTX, methotrexate] as the compound, how does the “Total colonization (16S copy number per gram stool)” value (human gut microbiota; Donor 1 (healthy) humanized mice, oral vehicle, 1 mg/kg or 50 mg/kg MTX, 4 days) read?
Answer: comparable between groups

Question: What about the “microbial richness (number of ASVs)” value (human gut microbiota; Donor 1 humanized mice, oral vehicle, 1 mg/kg or 50 mg/kg MTX, 4 days) of the same compound?
Answer: comparable between groups

Question: And the “number of low-dose ASVs also altered in a consistent direction in the high-dose group” value (human gut microbiota; Donor 1 mice, 1 mg/kg and 50 mg/kg)?
Answer: 19

Question: And the “gut microbial community structure, ANOSIM R” value (human gut microbiota; Donor 1 mice, after 1 day of treatment)?
Answer: 0.60

Question: And the “gut microbial community structure, ANOSIM R” value (human gut microbiota; Donor 1 mice, final day of treatment)?
Answer: 0.75

Question: And the “number of bacterial genera altered” value (human gut microbiota; Donor 1 mice, high-dose MTX 50 mg/kg)?
Answer: 14

Question: And the “Bacteroidetes phylum compared to vehicle controls” value (human gut microbiota; Donor 1 mice, high-dose MTX 50 mg/kg oral, Day 4 DESeq padj=0.001)?
Answer: significantly decreased

Question: And the “number of amplicon sequence variants (ASVs) altered” value (human gut microbiota; Donor 1 mice, high-dose MTX 50 mg/kg, DESeq padj<0.01, Day 4)?
Answer: 81

Question: And the “number of ASVs significantly altered” value (human gut microbiota; Donor 1 mice, low-dose MTX 1 mg/kg)?
Answer: 26

Question: And the “Bacteroidetes longitudinal trend, slope (generalized linear mixed-effects model)” value (human gut microbiota; Donor 1 mice, p=0.007)?
Answer: −0.066

Question: What about the Microbial richness (human gut microbiota; Donor 2 (treatment naive RA patient), individually housed mice, MTX 50 mg/kg, p=0.4) of the same compound?
Answer: comparable between groups

Question: What about the “number of ASVs with changed abundance” value (human gut microbiota; [3]) of the same compound?
Answer: 23

Question: And the “number of genera with changed abundance” value (human gut microbiota; [3])?
Answer: 8

Question: What about the phylum level changes (human gut microbiota; [3]) of the same compound?
Answer: No phylum level changes were detected

Question: What about the “ASV23 (Bacteroides faecichinchillae/faecis/finegoldii/thetaiotaomicron) abundance” value (human gut microbiota; Donor 2, individually housed mice, high-dose MTX (FIG. 7B)) of the same compound?
Answer: reduced

Question: What about the “ASV296 (Lachnoclostridium) abundance” value (human gut microbiota; Donor 2, individually housed mice, high-dose MTX (FIG. 7C)) of the same compound?
Answer: reduced

Question: And the “Dielma fastidiosa (ASV72) abundance” value (human gut microbiota; Donor 2, individually housed mice, high-dose MTX (FIG. 7D))?
Answer: decreased

Question: What about the “ASV908 (Paraprevotella) abundance” value (human gut microbiota; Donor 2, individually housed mice, high-dose MTX (FIG. 7E)) of the same compound?
Answer: increased

Question: What about the “number of ASVs with consistent shifts overlapping between route and rescue” value (human gut microbiota; Donor 3 mice, MTX 50 mg/kg) of the same compound?
Answer: 41

Question: And the “shift in gut microbiota, ANOSIM R” value (human gut microbiota; Donor 3 mice, rescue experiment (oral MTX with or without folic acid), p=0.002)?
Answer: 0.99

Question: What about the “shift in gut microbiota, ANOSIM R” value (human gut microbiota; Donor 3 mice, route experiment (oral or IP MTX 50 mg/kg), p=0.007) of the same compound?
Answer: 0.89

Question: What about the “number of ASVs differentially abundant” value (human gut microbiota; [4]) of the same compound?
Answer: 61

Question: And the “number of genera differentially abundant” value (human gut microbiota; [4])?
Answer: 31

Question: And the “number of phyla differentially abundant” value (human gut microbiota; [4])?
Answer: Four

Question: What about the a-diversity (human gut microbiota; combined gnotobiotic experiments, p>0.05, ANOVA) of the same compound?
Answer: not affected

Question: What about the “number of MTX responders (MTX-R)” value (gut microbiome; 23 RA patients, decrease in DAS28 of ≥1.8 and continued oral MTX without added DMARDs or biologics) of the same compound?
Answer: 8

Question: What about the “number of MTX non-responders (MTX-NR)” value (gut microbiome; 23 RA patients, same response definition) of the same compound?
Answer: 15

Question: What about the “number of KOs with significant differences in abundance” value (gut microbiome; MTX-NR, q<0.25, MaAsLin2) of the same compound?
Answer: 5

Question: And the “number of gene families with significant differences in abundance” value (gut microbiome; MTX-NR, q<0.25, MaAsLin2)?
Answer: 508

Question: And the “number of gene families with significant shift” value (gut microbiome; MTX-R, q<0.25, MaAsLin2)?
Answer: 2

Question: And the “change in Bacteroidetes over time in MTX-R relative to MTX-NR” value (gut microbiome; baseline vs 1 month, Wilcoxon rank-sum)?
Answer: significant decrease

Question: And the “richness, community structure, abundance of bacterial phyla, genera, or ASVs, pre- vs. post MTX” value (gut microbiome; entire cohort n=23, baseline vs 1 month, oral MTX standard of care)?
Answer: no significant differences

Question: What about the “number of gene families differentially abundant over time” value (gut microbiome; MaAsLin2 q-value<0.25) of the same compound?
Answer: 96

Question: And the “number of gene families differentially abundant over time” value (gut microbiome; nominal p-value<0.05)?
Answer: 6,409

Question: And the “number of KEGG orthologs (KOs) differentially abundant” value (gut microbiome; nominal p<0.05)?
Answer: 334

Question: What about the “number of KEGG orthologs (KOs) differentially abundant” value (gut microbiome; q<0.25) of the same compound?
Answer: 5

Question: What about the “patients with a robust response without escalation of therapy” value [1] of the same compound?
Answer: ~33%

Question: And the “MTX in pre-MTX and post-MTX stool samples from RA donors” value [2]?
Answer: not detected
